Reference: US20230115176A1 (Ra Pharmaceuticals, Inc., priority 2019, published 2023)
Where two headings read alike, the source gives them in different places.

Tests used:
[1] = molecular target: T1, Human C5 (Homo sapiens, UniProt P01031); assay: Surface plasmon resonance (SPR), immobilized human C5 (Example 9, Table 18); format: binding
T1 construct: purchased Complement Technology
Description: Morrison and Boyd in “Organic Chemistry”, 6th edition, Prentice Hall (1992)] and validated for proper structure by mass spectrometry.

[2] = molecular target: purified human C5 (Homo sapiens, UniProt P01031); assay: Red blood cell (RBC) hemolysis assay, optical, absorbance 412 nm (Example 10, Table 19); format: cell-based; conditions: antibody-sensitized sheep erythrocytes, […] human C5 depleted sera
purified human C5, sequence (P01031 19-1676): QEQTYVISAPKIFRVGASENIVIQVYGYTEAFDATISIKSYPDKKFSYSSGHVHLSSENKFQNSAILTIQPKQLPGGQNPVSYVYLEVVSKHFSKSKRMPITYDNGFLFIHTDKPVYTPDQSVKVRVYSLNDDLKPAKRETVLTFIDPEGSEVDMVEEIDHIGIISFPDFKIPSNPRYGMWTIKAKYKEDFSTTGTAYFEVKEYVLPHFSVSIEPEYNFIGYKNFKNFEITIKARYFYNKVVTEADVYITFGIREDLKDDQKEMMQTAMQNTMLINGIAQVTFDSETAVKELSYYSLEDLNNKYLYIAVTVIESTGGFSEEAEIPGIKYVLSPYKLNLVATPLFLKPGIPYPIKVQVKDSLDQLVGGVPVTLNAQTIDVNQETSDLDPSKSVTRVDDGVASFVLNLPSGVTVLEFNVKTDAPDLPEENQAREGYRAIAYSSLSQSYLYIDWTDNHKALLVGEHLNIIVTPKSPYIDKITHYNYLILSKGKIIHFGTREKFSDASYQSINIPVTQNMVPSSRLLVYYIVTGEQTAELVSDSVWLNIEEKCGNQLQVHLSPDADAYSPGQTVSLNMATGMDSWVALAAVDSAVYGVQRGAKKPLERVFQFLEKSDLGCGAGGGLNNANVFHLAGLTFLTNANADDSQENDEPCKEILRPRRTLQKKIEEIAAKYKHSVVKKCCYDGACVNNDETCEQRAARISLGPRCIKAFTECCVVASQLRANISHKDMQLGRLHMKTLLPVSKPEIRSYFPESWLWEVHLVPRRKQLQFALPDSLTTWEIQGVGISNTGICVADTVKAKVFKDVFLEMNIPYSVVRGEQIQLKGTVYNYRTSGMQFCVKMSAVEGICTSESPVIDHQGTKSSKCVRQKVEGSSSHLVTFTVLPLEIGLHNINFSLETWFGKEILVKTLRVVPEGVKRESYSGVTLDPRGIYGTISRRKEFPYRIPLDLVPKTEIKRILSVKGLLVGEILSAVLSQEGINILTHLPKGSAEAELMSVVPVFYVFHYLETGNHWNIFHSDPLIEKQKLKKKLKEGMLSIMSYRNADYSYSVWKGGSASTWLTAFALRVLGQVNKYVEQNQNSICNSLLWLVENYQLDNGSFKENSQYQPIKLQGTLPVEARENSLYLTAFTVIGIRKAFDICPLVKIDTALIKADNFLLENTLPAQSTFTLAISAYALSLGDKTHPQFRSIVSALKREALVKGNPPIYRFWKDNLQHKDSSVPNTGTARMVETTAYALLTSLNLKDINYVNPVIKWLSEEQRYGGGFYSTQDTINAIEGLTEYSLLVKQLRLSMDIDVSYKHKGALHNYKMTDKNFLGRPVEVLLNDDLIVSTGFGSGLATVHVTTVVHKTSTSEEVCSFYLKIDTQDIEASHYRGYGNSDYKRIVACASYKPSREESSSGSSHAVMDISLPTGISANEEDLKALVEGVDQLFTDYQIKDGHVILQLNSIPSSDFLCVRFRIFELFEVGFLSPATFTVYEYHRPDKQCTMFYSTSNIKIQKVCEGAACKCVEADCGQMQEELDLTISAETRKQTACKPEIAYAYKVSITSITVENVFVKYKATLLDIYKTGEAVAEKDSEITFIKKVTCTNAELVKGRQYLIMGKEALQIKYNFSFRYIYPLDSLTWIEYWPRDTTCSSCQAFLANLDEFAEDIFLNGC

[3] = immobilized human C5, equilibrium dissociation constant, read-out: SPR C5 EQ KD
[4] = 0.5 nM purified human C5, absorbance 412 nm, read-out: RBC Hemolysis IC50
[5] = 0.5 nM human C5, read-out: IC50
[6] = SPR, human C5 immobilized, read-out: equilibrium dissociation constant for interaction with C5

T1 sequence (P01031 19-1676): as above

COC(=O)CCn1ccc2c(CNC(=O)Nc3ccc(OC)c(OCCCC(C)C)c3)ccnc21 [Compound C5INH-0398]
Kd [1, 3]: 89 nM
IC50 [2, 4]: 329 nM

COc1cnccc1CNC(=O)Nc1ccc(OC)c(OCCCC(C)C)c1 [Compound C5INH-0401]
Kd [1, 3]: 48 nM
IC50 [2, 4]: 136 nM

COc1ccc(NC(=O)NCc2ccncc2OCCCN(C)C)cc1OCCCC(C)C [Compound C5INH-0402]
Kd [1, 3]: 261 nM
IC50 [2, 4]: 1340 nM

COc1ccc(NC(=O)NCc2ccnc(N3CCCC(O)C3)c2)cc1OCCCC(C)C (stereo not drawn) [Compound C5INH-0403]
Kd [1, 3]: 220 nM
IC50 [2, 4]: 2990 nM

COc1ccc(NC(=O)N[C@H](CO)c2ccccc2)cc1C(F)C(F)CCC(C)C (stereo partly drawn) [Compound C5INH-0406]
Kd [1, 3]: 760 nM
IC50 [2, 4]: 683 nM

COc1ccc(NC(=O)NCc2ccnc3c2ccn3CCNS(C)(=O)=O)cc1OCCCC(C)C [Compound C5INH-0409]
Kd [1, 3]: 110 nM
IC50 [2, 4]: 477 nM

CCS(=O)(=O)NCCn1ccc2c(CNC(=O)Nc3ccc(OC)c(OCCCC(C)C)c3)ccnc21 [Compound C5INH-0410]
Kd [1, 3]: 840 nM
IC50 [2, 4]: 568 nM

COc1ccc(NC(=O)NCc2ccc3c(ccn3CCN(C)C)c2)cc1OCCCC(C)C [Compound C5INH-0414]
Kd [1, 3]: 500 nM
IC50 [2, 4]: 781 nM

COc1ccc(NC(=O)NCc2ncccc2OC)cc1OCCCC(C)C [Compound C5INH-0417]
Kd [1, 3]: 693 nM
IC50 [2, 4]: 1130 nM

COc1ccc(NC(=O)NCc2ccc(N3CCN(C)CC3)cc2)cc1OCCCC(C)C [Compound C5INH-0420]
Kd [1, 3]: 800 nM
IC50 [2, 4]: 403 nM

COc1ccc(NC(=O)NCc2ccc(CN3CCOCC3)cc2)cc1OCCCC(C)C [Compound C5INH-0421]
Kd [1, 3]: 1660 nM
IC50 [2, 4]: 4590 nM

COc1cc(CC(N)=O)c(NC(=O)N[C@@H](CO)c2ccccc2)cc1OCCCC(C)C [Compound C5INH-0422]
Kd [1, 3]: 1340 nM
IC50 [2, 4]: 1370 nM

COc1ccc(NC(=O)NCc2ccc(N)nc2)cc1OCCCC(C)C [Compound C5INH-0428]
Kd [1, 3]: 530 nM
IC50 [2, 4]: 3060 nM

CC(C)CCCOc1cc(NC(=O)N[C@@H](CO)c2ccccc2)ccc1N [Compound C5INH-0431]
Kd [1, 3]: 1160 nM
IC50 [2, 4]: 3790 nM

COc1ccc(NC(=O)N[C@@H](CO)c2ccccc2)cc1C(F)CCCC(C)C (stereo partly drawn) [Compound C5INH-0432]
Kd [1, 3]: 530 nM
IC50 [2, 4]: 417 nM

COc1ccc(NC(=O)NCc2ccnc3c2ccn3C(C)=O)cc1OCCCC(C)C [Compound C5INH-0436]
Kd [1, 3]: 510 nM
IC50 [2, 4]: 1700 nM

COc1ccc(NC(=O)NCc2cccc3c2ccn3CCN2CCOCC2)cc1OCCCC(C)C [Compound C5INH-0437]
Kd [1, 3]: 37 nM
IC50 [2, 4]: 81.5 nM

COc1ccc(NC(=O)N(CCN2CCOCC2)Cc2cccc3c2ccn3CCN2CCOCC2)cc1OCCCC(C)C [Compound C5INH-0438]
Kd [1, 3]: 2780 nM
IC50 [2, 4]: 3000 nM

COc1cc(CC(=O)N(C)C)c(NC(=O)N[C@@H](CO)c2ccccc2)cc1OCCCC(C)C [Compound C5INH-0440]
Kd [1, 3]: 7600 nM
IC50 [2, 4]: 3160 nM

CNc1ccc(CNC(=O)Nc2ccc(OC)c(OCCCC(C)C)c2)cc1 [Compound C5INH-0443]
Kd [1, 3]: 300 nM
IC50 [2, 4]: 1990 nM

COc1ccc(NC(=O)NCc2ccc(N(C)CC(N)=O)cc2)cc1OCCCC(C)C [Compound C5INH-0446]
Kd [1, 3]: 184 nM
IC50 [2, 4]: 2710 nM

COc1ccc(NC(=O)NCc2ccc3c(ccn3CC(=O)N(C)C)c2)cc1OCCCC(C)C [Compound C5INH-0447]
Kd [1, 3]: 204 nM
IC50 [2, 4]: 536 nM

COc1ccc(NC(=O)NCc2cccc3cccnc23)cc1OCCCC(C)C [Compound C5INH-0450]
Kd [1, 3]: 885 nM
IC50 [2, 4]: 298 nM

COc1ccc(NC(=O)NCc2ccnc(NCCN3CCOCC3)c2OC)cc1OCCCC(C)C [Compound C5INH-0452]
Kd [1, 3]: 59 nM
IC50 [2, 4]: 95.5 nM

COc1ccc(NC(=O)NCc2ccnc(NCCN(C)C)c2OC)cc1OCCCC(C)C [Compound C5INH-0453]
Kd [1, 3]: 25 nM
IC50 [2, 4]: 65.5 nM

COc1ccc(NC(=O)NCc2ccnc(N)c2OC)cc1OCCCC(C)C [Compound C5INH-0454]
Kd [1, 3]: 284 nM
IC50 [2, 4]: 301 nM

COc1ccc(NC(=O)NCc2cccc(OC)c2O)cc1OCCCC(C)C [Compound C5INH-0456]
Kd [1, 3]: 29 nM
IC50 [2, 5]: 7 nM

COc1ccc(NC(=O)NCc2ccc3c(N)n[nH]c3c2)cc1OCCCC(C)C [Compound C5INH-0458]
Kd [1, 3]: 225 nM
IC50 [2, 4]: 416 nM

COc1ccc(NC(=O)NCc2ccc(Cn3ccnc3)cc2)cc1OCCCC(C)C [Compound C5INH-0460]
Kd [1, 3]: 578 nM
IC50 [2, 4]: 725 nM

COc1ccc(NC(=O)NCc2cccc(OCCN(C)C)c2)cc1OCCCC(C)C [Compound C5INH-0462]
Kd [1, 3]: 95 nM
IC50 [2, 4]: 113 nM

COc1ccc(NC(=O)NC(CO)c2cccc3c2ccn3C)cc1OCCCC(C)C (stereo not drawn) [Compound C5INH-0463]
Kd [1, 3]: 280 nM
IC50 [2, 4]: 808 nM

COc1ccc(NC(=O)NCc2cccc(F)c2O)cc1OCCCC(C)C [Compound C5INH-0472]
Kd [1, 3]: 82 nM
IC50 [2, 5]: < 20 nM
IC50 [2, 4]: 16 nM

COc1ccc(NC(=O)NCc2cc(F)ccc2O)cc1OCCCC(C)C [Compound C5INH-0473]
Kd [1, 3]: 69 nM
IC50 [2, 4]: 21.5 nM

COc1ccc(NC(=O)NCc2ccnc3c2ccn3CC2=NCCCN2)cc1OCCCC(C)C [Compound C5INH-0474]
Kd [1, 3]: 201 nM
IC50 [2, 4]: 120 nM

COc1ccc(NC(=O)NCc2cccc(O)c2O)cc1OCCCC(C)C [Compound C5INH-0476]
Kd [1, 3]: 40 nM
IC50 [2, 5]: < 20 nM
IC50 [2, 4]: 8.5 nM

COc1ccc(NC(=O)NC(CO)c2ccccc2)cc1COCCC(C)C (stereo not drawn) [Compound C5INH-0477]
Kd [1, 3]: 1130 nM
IC50 [2, 4]: 1460 nM

COc1ccc(F)cc1CNC(=O)Nc1ccc(OC)c(OCCCC(C)C)c1 [Compound C5INH-0484]
Kd [1, 3]: 770 nM
IC50 [2, 4]: 150 nM

COc1ccc(CNC(=O)Nc2ccc(OC)c(OCCCC(C)C)c2)c(O)c1 [Compound C5INH-0485]
Kd [1, 3]: 330 nM
IC50 [2, 4]: 46.9 nM

COc1ccc(NC(=O)NC(CO)c2cccc(OC)c2O)cc1OCCCC(C)C (stereo not drawn) [Compound C5INH-0486]
Kd [1, 3]: 25 nM
IC50 [2, 5]: 3 nM

COc1ccc(NC(=O)NC(CO)c2cc(N)ccc2OC)cc1OCCCC(C)C (stereo not drawn) [Compound C5INH-0488]
Kd [1, 3]: 100 nM
IC50 [2, 5]: < 20 nM
IC50 [2, 4]: 12 nM

COc1ccc(NC(=O)NC(CO)c2cc(NC(C)=O)ccc2OC)cc1OCCCC(C)C (stereo not drawn) [Compound C5INH-0489]
Kd [1, 3]: 364 nM
IC50 [2, 4]: 177 nM

COc1ccc(NC(=O)NCc2ccnc3c2ccn3CCCN2CCCC2)cc1OCCCC(C)C [Compound C5INH-0490]
Kd [1, 3]: 278 nM
IC50 [2, 4]: 144 nM

COc1ccc(NC(=O)NCc2ccnc3c2ccn3CCCN(C)C)cc1OCCCC(C)C [Compound C5INH-0491]
Kd [1, 3]: 62 nM
IC50 [2, 4]: 83.5 nM

COc1ccc(NC(=O)N(C)Cc2cccc3ccn(C)c23)cc1OCCCC(C)C [Compound C5INH-0492]
Kd [1, 3]: 2070 nM
IC50 [2, 4]: 2650 nM

COc1ccc(NC(=O)NCc2cccc(NC(C)=O)c2)cc1OCCCC(C)C [Compound C5INH-0496]
Kd [1, 3]: 600 nM
IC50 [2, 4]: 400 nM

CNc1cccc(CNC(=O)Nc2ccc(OC)c(OCCCC(C)C)c2)c1 [Compound C5INH-0497]
Kd [1, 3]: 1400 nM
IC50 [2, 4]: 913 nM

COc1ccc(CNC(=O)Nc2ccc(OC)c(OCCCC(C)C)c2)cn1 [Compound C5INH-0498]
Kd [1, 3]: 1480 nM
IC50 [2, 4]: 4640 nM

COc1ccc(NC(=O)NCc2cccc3c2ncn3S(=O)(=O)c2ncc[nH]2)cc1OCCCC(C)C [Compound C5INH-0500]
Kd [1, 3]: 334 nM
IC50 [2, 4]: 556 nM

COc1ccc(NC(=O)NC(C(=O)O)c2cccc(OC)c2O)cc1OCCCC(C)C (stereo not drawn) [Compound C5INH-0501]
Kd [1, 3]: 330 nM
IC50 [2, 4]: 468 nM

COCc1cccc(CNC(=O)Nc2ccc(OC)c(OCCCC(C)C)c2)c1 [Compound C5INH-0502]
Kd [1, 3]: 1910 nM
IC50 [2, 4]: 3090 nM

COc1cc(CNC(C)=O)c(NC(=O)NCc2ccnc3[nH]ccc23)cc1OCCCC(C)C [Compound C5INH-0504]
Kd [1, 3]: 316 nM
IC50 [2, 4]: 318 nM

COc1ccc(NC(=O)NCc2cccc3c2ccn3CC(=O)N(C)C)cc1OCCCC(C)C [Compound C5INH-0516]
Kd [1, 6]: < 20 nM
Kd [1, 3]: 16 nM
IC50 [2, 4]: 127 nM

COc1ccc(NC(=O)NCc2cc(F)cc3[nH]ccc23)cc1OCCCC(C)C [Compound C5INH-0517]
Kd [1, 6]: < 20 nM
Kd [1, 3]: 10.7 nM
IC50 [2, 4]: 369 nM
